The results in this text go back to PubChem BioAssay AID179 (DTP/NCI, 2004).

The test system of the experiment is CEM cells HIV-1 protection, formazan growth assay. Put plainly: NCI AIDS Antiviral Assay. The following applies: for IC50: measured here: growth of uninfected CEM cells. Summed up: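 Screen of anti-HIV-1 activity in human CEM cells using a formazan-based growth measurement at five drug concentrations. Hits with 50% or greater protection were repeated, and confirmation required reproducible complete protection.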

Structures are written as SMILES. Activity calls are given as the source filed them.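 The calls were made as follows: active = compounds giving half or more protection of infected cells from virus-caused growth loss, again on retest; inactive = the rest.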 Where a SMILES comes first, the peptide text is derived from it. The star is where a group is joined. Myristoyl = CCCCCCCCCCCCCC(=O)*

In general, EC50 refers to the concentration needed to bring the measured effect to its halfway point. Usually IC50 stands for the concentration that inhibits the measured activity by half. Read a low IC50 as greater potency in that assay. As to `CC1SC(=S)N(c2ccc(Cl)cc2)C1=O` (centres undefined), the EC50 was above 138 µM and the IC50 is 67.6 µM.
In the same order, the values of `NC1=C(c2nc(-c3cc4ccccc4oc3=O)cs2)C(c2ccco2)c2c(c3ccccc3oc2=O)O1` (centres undefined) are above 100 µM and above 100 µM.
In the same order, the values of `Cc1cc(N=Nc2c(N)c(C)cc(N=Nc3ccc(C(N)=O)cc3)c2N)ccc1N=Nc1cc(C(=O)O)c(O)c(S(=O)(=O)O)c1` are 8.91 µM and above 200 µM.
The matching figures for `Cc1c(Cc2ccccc2)n(COCCCN2C(=O)c3ccccc3C2=O)c(=O)[nH]c1=O`: above 200 µM and 26.3 µM.
In the case of `CCc1cccc(C(C)CC)c1NC(=O)C(=O)Cc1nc2ccccc2o1` (centres undefined), the EC50 was above 347 µM and the IC50 is above 347 µM.
As for `CC1=C(C(=O)Nc2ccccc2)C(c2ccc(C)o2)C(C#N)=C(SCc2ccccc2)N1` (centres undefined), the EC50 was above 200 µM and the IC50 was 24 µM.
In the same order, the values of `Nn1c(SCC(=O)O)nc2ccccc2c1=O` are above 200 µM and above 200 µM.
In the same order, the values of `c1ccc(-c2nnc3nn4c(-c5ccccc5)cnnc4c3c2-c2ccccc2)cc1` are above 9.33 µM and above 9.33 µM.
Regarding `C=CCC(C)(C(=O)NCCC)C(=O)c1ccccc1O` (centres undefined), the result was inactive.
Consider `CSc1n[nH]c2n[nH]c(C)c12`, for which the EC50 is above 200 µM and the IC50 is 105 µM.
In the same order, the values of `O=C(O)C1C2c3ccccc3C(O)C1(C(=O)O)c1ccccc12` (centres undefined) are above 407 µM and above 407 µM.
The matching figures for `CCO/C=N/C1=C(C#N)SC2=N/C(=C\c3ccccc3)C(=O)N21`: above 200 µM and 77.6 µM.
On to `CNC(=O)N1CN(c2ccccc2)C2(CCN(CCCC(=O)c3ccc(F)cc3)CC2)C1=O`, for which the EC50 was above 200 µM and the IC50 amounted to 10.5 µM.
In the same order, the values of `CCCCCCCCCCCCCC(=O)NCC(=O)NC(CO)C(=O)NC(CO)C(=O)NC(CCCCN)C(=O)NC(CO)C(=O)NC(CCCCN)C(=O)N1CCCC1C(=O)NC(CCCCN)C(=O)NC(CC(=O)O)C(=O)N1CCCC1C(=O)NC(CO)C(=O)NC(CCC(N)=O)C(=O)NC(CCCNC(=N)N)C(=O)NC(CCCNC(=N)N)C(=O)NC(CCCNC(=N)N)C(=O)NC(Cc1ccc(O)cc1)C(N)=O` (centres undefined) (Myristoyl-GSSKSKPKDPSQRRRY-NH2; configuration not given here) are above 120 µM and above 120 µM.
Consider `CC(CN1CC(=O)NC(=O)C1)N1CC(=O)NC(=O)C1` (centres undefined), for which the EC50 is above 468 µM and the IC50 was found to be 40.7 µM.
As to `NC(=O)c1ccc2cc(O)c(O)cc2c1`, the EC50 is above 245 µM and the IC50 stood at 34.7 µM.
Turning to `C=CC1C(=C)CCC2C1CCC1C(C)(C(=O)O)CCCC21C` (centres undefined), the result was inactive.
As to `CC/C(=C\c1ccc(OC)cc1)c1ccc(OC)cc1`, the EC50 is above 200 µM and the IC50 was above 200 µM.
As for `CCOC(=O)Cn1c2ccccc2c(=O)c2cc(C)c(C)c(C#N)c21`, the EC50 is above 21.4 µM and the IC50 was above 21.4 µM.
As for `O=[N+]([O-])c1ccc(NN=C2CN3CCN(C2)c2ccccc23)c([N+](=O)[O-])c1`, the EC50 is above 200 µM and the IC50 worked out at 162 µM.
The matching figures for `CC(C)Cc1cnc(CC(C)C)c(-c2cc3ccccc3[nH]2)n1`: above 8.91 µM and above 8.91 µM.
The matching figures for `N=C(N)C1CN(CCCCCCCCCCN2CC(C(=N)N)C(=O)NC2=O)C(=O)NC1=O` (centres undefined): above 200 µM and above 200 µM.
In the same order, the values of `COc1ccc(-c2c(C#N)c(N)n(C3OCC(O)C(O)C3O)c(=S)c2C#N)cc1` (centres undefined) are above 200 µM and 117 µM.
Take `Oc1ccc(O)c(CNc2ccc(C(O)C(F)(F)F)cc2)c1` (centres undefined): the EC50 was above 200 µM and the IC50 came to 18.6 µM.
The matching figures for `CCC(=O)NC(OCC1(CC)COC1)(C(F)(F)F)C(F)(F)F`: above 200 µM and above 200 µM.
The matching figures for `Cc1ccc(C(C)C)c(OP(=S)(S)Oc2cc(C)ccc2C(C)C)c1`: above 200 µM and 4.17 µM.
In the same order, the values of `CCOC(=O)c1cn2ccccc2c(C(=O)c2cccnc2)c1=N` are above 50.1 µM and above 50.1 µM.
Turning to `COc1cc2c(Cc3cc(OCc4ccccc4)ccc3N)nccc2c(OC)c1OC`, the outcome was inactive.
Same read-out and setting: the entry for `N#CC1CCCCOCCOCCOCCOCCOCCCCCC1=O` (centres undefined) is “inactive”.
For `O=c1c(OS(=O)(=O)O)c(-c2ccc(OS(=O)(=O)O)c(OS(=O)(=O)O)c2)oc2cc(OS(=O)(=O)O)cc(OS(=O)(=O)O)c12`, the EC50 is above 100 µM and the IC50 came to 51.3 µM.
The matching figures for `Cc1nccc2c1cnc1ccnn12`: above 28.2 µM and above 28.2 µM.
The matching figures for `O=C1CNc2cc(N3CCOCC3)ccc2N1`: above 200 µM and 28.2 µM.
In the same order, the values of `CC1(C)CCCCCCC2CC2CCCCCC(C)(C)C1=O` (centres undefined) are above 200 µM and 105 µM.
As to `Cc1cc(N(CCC#N)CCC#N)ccc1/C=C(\NC(=O)/C=C/c1ccccc1)NC(=O)Nc1ccccc1C`, the EC50 was above 9.77 µM and the IC50 was above 9.77 µM.
Regarding `C=C1CC[C@@H](Br)C(C)(C)[C@]12CCC(C)(O)C(Cl)C2` (some centres undefined), the EC50 was above 77.6 µM and the IC50 was above 77.6 µM.
With `C[N+](C)(C)CC1CCCC(C[N+](C)(C)C)C1O` (centres undefined), the result was inactive.
`C[N+](C)(CCO)CCN1c2ccccc2Sc2ccccc21`: the EC50 was above 200 µM and the IC50 was above 200 µM.
For `CCOC(=O)C(Cl)C1(O)Cc2cccc3cccc1c23` (centres undefined), the EC50 is above 200 µM and the IC50 stood at 110 µM.
In the same order, the values of `CC(=O)NNC(=S)N/C=C(\C#N)C(=O)c1ccc2ccccc2c1` are above 200 µM and above 200 µM.
As to `[N-]=[NH+]CC(=O)OC(COCc1ccccc1)COCc1ccccc1`, the EC50 is above 200 µM and the IC50 was determined as 117 µM.
In the same order, the values of `c1ccc(SCc2ccc3c(c2)OCO3)cc1` are above 77.6 µM and above 77.6 µM.
In the same order, the values of `CC(O)C1CC1(CO)CNc1cc(Cl)nc(N)n1` (centres undefined) are above 200 µM and above 200 µM.
Consider `COc1ccc2c(NCCCCCCNc3c4ccccc4nc4cc(OC)ccc34)c3ccccc3nc2c1`, for which the outcome was inactive.
Consider `COc1ccc(C(=O)Nc2ccn(CCOC(=O)c3ccc(OC)cc3)c(=O)n2)cc1`, for which the EC50 is above 44.7 µM and the IC50 was above 44.7 µM.
As for `N#Cc1c(Cl)c2ccccc2n2c1nc1ccccc12`, the EC50 was above 151 µM and the IC50 was determined as 8.32 µM.
The matching figures for `CCC[N+]1=C/c2ccccc2OC(=O)/C=C\1[O-]`: above 200 µM and above 200 µM.
In the same order, the values of `Cc1cc(C)cc(NC(N)=S)c1` are above 1000 µM and above 1000 µM.
The matching figures for `COc1nc2ncc([C@@H](O)[C@H](O)CO)nc2c(=O)n1C`: above 200 µM and above 200 µM.
Consider `COc1ccc(/C=N/NS(=O)(=O)c2ccc(/C=C3\NC(=O)N(C)C3=O)cc2)cc1`, for which the EC50 was above 200 µM and the IC50 is above 200 µM.
For `Cc1ccc(Nc2nc(C)c(C(=O)CC(=O)C(=O)Nc3ccc(Cl)cc3)s2)cc1`, the EC50 is above 200 µM and the IC50 was above 200 µM.
Turning to `COC(=O)CCC(=O)CC1CC(=O)C2CCCN12` (centres undefined), the result was inactive.
Still for that read-out and setting: the entry for `Cc1cc2c(cc1Cl)SC(C(=O)c1ccc(Cl)cc1)=NS2(=O)=O` is “inactive”.
Regarding `N=c1ccn2c(n1)OC1C(O)C(CCl)OC12` (centres undefined), the EC50 is above 200 µM and the IC50 was determined as 0.145 µM.
The matching figures for `COC(=O)C(C)(N=Cc1ccccc1)c1ccccc1` (centres undefined): above 200 µM and above 200 µM.
The matching figures for `C[C@@H]1C(O)CC[C@H](C)C12CC=CC2=O` (some centres undefined): above 200 µM and above 200 µM.
With `CC1CC(C2=CC=CCS2)=Nc2ccccc2S1` (centres undefined), the EC50 was above 55 µM and the IC50 is 53.7 µM.
In the same order, the values of `O=C(Nc1nc2c(=O)[nH]cnc2s1)c1ccccc1` are above 200 µM and above 200 µM.
In the same order, the values of `C/C=C/CC1(C(C)C)C(=O)NC(=S)NC1=O` are above 200 µM and above 200 µM.
`Cc1cc2c(c(C(N)=O)c1C)-c1cccc(Cl)c1C2=O`: the outcome was inactive.
With `CC(=O)NC1C(O)CC(O)(C(=O)O)OC1C(O)C(O)CO` (centres undefined), the outcome was inactive.
For the molecule `CC(C)C(/C=C/c1ccc(Cl)cc1)=N\NC(=O)N/N=C(/C=C/c1ccc(Cl)cc1)C(C)C`, the EC50 is above 100 µM and the IC50 was above 100 µM.
Take `Cc1[nH]c(=O)[nH]c(=O)c1Cl`: the result was inactive.
Take `O=c1[nH]c2cc(Cl)ccc2nc1/C(=N\Nc1ccccc1)C(O)c1ccc2c(c1)OCO2` (centres undefined): the EC50 is above 209 µM and the IC50 is above 209 µM.
On to `COC1=CC(=O)c2nc(COC(C)=O)ccc2C1=O`, for which the result was inactive.
For the molecule `CCOc1csc([C@H]2CCC3[C@@H]4CC=C5C[C@@H](OC(=O)CCC(=O)O)CC[C@]5(C)C4CC[C@@]32C)n1` (some centres undefined), the EC50 is above 50.1 µM and the IC50 turned out to be 33.9 µM.
In the same order, the values of `COc1ccc(C2=NN(C(=O)COc3ccc(Cl)cc3)C(O)(c3ccc(Cl)cc3)C2)cc1` (centres undefined) are above 11 µM and above 11 µM.
The matching figures for `Cc1n[nH]c(=O)n1C1CCCC1`: above 200 µM and above 200 µM.
In the same order, the values of `CSC1=N/C(=C\c2ccco2)C(=O)N1CN1CCOCC1` are above 200 µM and 39.8 µM.
With `O=C1C2CN(Cc3ccccc3)CC2C(=O)N1c1ccccc1` (centres undefined), the EC50 is above 200 µM and the IC50 was above 200 µM.
Consider `CCOC(=O)C(C[Si](C)(C)C)P(=O)(OCC)OCC` (centres undefined), for which the EC50 is above 575 µM and the IC50 was found to be 537 µM.
As to `Fc1cccc2c1[nH]c1c2ncc2[nH]c3ccccc3c21`, the EC50 is above 20 µM and the 50% inhibitory concentration (IC50) worked out at 6.92 µM.
Take `CCOC(=O)c1nc2ccccc2nc1Nc1ccc(OC)c(OC)c1`: the EC50 is above 200 µM and the 50% inhibitory concentration (IC50) is above 200 µM.
Consider `CCOC(=O)C(NC(=O)c1[nH]cnc1/N=N/N(C)C)C(C)C` (centres undefined), for which the EC50 was above 23.4 µM and the IC50 was above 23.4 µM.
